# Results taken from patent US4582639A, “Antitumor antibiotic compound” (priority 1984, dated 1986).
# Bridge positions count the residues as written; N and C are the ends. Square brackets hold non-standard residues; d marks the D form. Peptide text beside a SMILES is read from it. I, II: the chains in the order shown. * marks the point of attachment. Quinaldoyl(3-OH) = O=C(c1nc2ccccc2cc1O)*; NMeV = CN[CH](C(=O)O)C(C)C; Pip = O=C(O)[CH]1CCCCN1; Sar = CNCC(=O)O
# Columns and labels:
# Strep. faecalis A9611 = experiment: serial two-fold agar dilution, MIC; assay type: cell-based, Streptococcus faecalis; details: Enterococcus faecalis, read-out: Minimum Inhibitory Concentration (MIC)
# Procedure: (§1) The antibacterial activities of sandramycin were determined by a serial two-fold agar dilution method. The results are shown in Table 5 in comparison with the activities of luzopeptin A and echinomycin.
# [1] = tested on: E. coli (actinomycin sensitive) A21780 (AS-19); experiment: serial two-fold agar dilution, MIC; assay type: cell-based; details: Escherichia coli, read-out: Minimum Inhibitory Concentration (MIC)
# Procedure: as §1
# E. coli A15119 = experiment: serial two-fold agar dilution, MIC; assay type: cell-based; details: Escherichia coli, read-out: Minimum Inhibitory Concentration (MIC)
# Procedure: as §1
# [2] = tested on: B. subtilis (Rec. +) A22508-2; experiment: serial two-fold agar dilution, MIC; assay type: cell-based; details: Bacillus subtilis; B. subtilis (Rec. +) A22508-2, agar dilution; read-out: Minimum Inhibitory Concentration (MIC)
# Procedure: as §1
# [3] = tested on: B. subtilis (Rec. -) A22509-2-2; experiment: serial two-fold agar dilution, MIC; assay type: cell-based; details: Bacillus subtilis; B. subtilis (Rec. -) A22509-2-2, agar dilution; read-out: Minimum Inhibitory Concentration (MIC)
# Procedure: as §1
# [4] = tested on: S. aureus (echinomycin resistant) A9628; experiment: microbe, parasite or virus in culture; assay type: cell-based; details: Staphylococcus aureus, read-out: Minimum Inhibitory Concentration (MIC)
# Procedure: The antibacterial activities of sandramycin were determined by a serial two-fold agar dilution method.
# P-388 leukemia = experiment: transplantable mouse tumor P-388 leukemia; assay type: in vivo, mouse (CDF1 female mice)
# Procedure: The methodology used generally followed the protocols of the National Cancer Institute [Cancer Chemotherapy Rep. Part 3, 3, 1-103 (1972)]. The essential experimental details are given at the bottom of Table 6. Two different dose regimens were tested: single dose on day 1 and daily for 5 days. With both schedules, the optimum dose appears to be about 0.2 mg/kg/injection.
# Tumor inoculum: 10^6 ascites cells implanted i.p.
# Evaluation: MST=median survival time
# Effect: % T/C≥(MST treated/MST control)×100
# Criteria: % T/C=125 considered significant antitumor activity
# AWC: average weight change (treated-control) in grams (on day 4)
# [5] = tested on: gram-positive organisms such as Bacillus subtilis and Staphylococcus aureus as well as Streptococcus faecalis; experiment: serial two-fold agar dilution, antibacterial activity in words; assay type: cell-based
# Procedure: as §1
structure (smiles),measurement,setting,value
CS[C@H]1SC[C@H]2C(=O)N(C)[C@@H](C(C)C)C(=O)OC[C@@H](NC(=O)c3cnc4ccccc4n3)C(=O)N[C@@H](C)C(=O)N(C)[C@@H]1C(=O)N(C)[C@@H](C(C)C)C(=O)OC[C@@H](NC(=O)c1cnc3ccccc3n1)C(=O)N[C@@H](C)C(=O)N2C [Echinomycin],MIC,Strep. faecalis A9611,0.012 µg/mL
same,MIC,[1],6.25 µg/mL
same,MIC,E. coli A15119,12.5 µg/mL
same,MIC,[2],0.049 µg/mL
same,MIC,[3],< 0.003 µg/mL
same,MIC,[4],0.78 µg/mL
COc1ccc2nc(C(=O)N[C@@H]3COC(=O)[C@H](C(C)(C)O)N(C)C(=O)CN(C)C(=O)CNC(=O)C4C(OC(C)=O)CC=NN4C(=O)[C@H](NC(=O)c4nc5ccc(OC)cc5cc4O)COC(=O)[C@H](C(C)(C)O)N(C)C(=O)CN(C)C(=O)CNC(=O)C4C(OC(C)=O)CC=NN4C3=O)c(O)cc2c1 (some centres unmarked) [Luzopeptin A],MIC,Strep. faecalis A9611,0.195 µg/mL
same,MIC,[1],12.5 µg/mL
same,MIC,E. coli A15119,12.5 µg/mL
same,MIC,[2],0.195 µg/mL
same,MIC,[3],0.049 µg/mL
same,MIC,[4],0.098 µg/mL
"CC(C)C1C(=O)OCC(NC(=O)c2nc3ccccc3cc2O)C(=O)N2CCCCC2C(=O)NCC(=O)N(C)CC(=O)N(C)C(C(C)C)C(=O)OCC(NC(=O)c2nc3ccccc3cc2O)C(=O)N2CCCCC2C(=O)NCC(=O)N(C)CC(=O)N1C (centres unmarked) [Sandramycin] (I: {Quinaldoyl(3-OH)}-S[Pip]G[Sar][NMeV] / II: {Quinaldoyl(3-OH)}-S[Pip]G[Sar][NMeV]; ester I:1-II:C, I:C-II:1; configuration not given here)",MIC,Strep. faecalis A9611,0.024 µg/mL
same,optimum dose,"P-388 leukemia; IP, both schedules (single dose on day 1 and daily for 5 days)",about 0.2 mg/kg/injection
same,AWC Day 4,"P-388 leukemia; d. 1, IP, 0.025 mg/kg/inj.",-0.2 gm
same,MST,"P-388 leukemia; d. 1, IP, 0.025 mg/kg/inj.",9.5 days
same,MST % T/C,"P-388 leukemia; d. 1, IP, 0.025 mg/kg/inj.",106%
same,Survivors Day 5,"P-388 leukemia; d. 1, IP, 0.025 mg/kg/inj.",6/6
same,AWC Day 4,"P-388 leukemia; d. 1, IP, 0.05 mg/kg/inj.",-0.6 gm
same,MST,"P-388 leukemia; d. 1, IP, 0.05 mg/kg/inj.",10.0 days
same,MST % T/C,"P-388 leukemia; d. 1, IP, 0.05 mg/kg/inj.",111%
same,Survivors Day 5,"P-388 leukemia; d. 1, IP, 0.05 mg/kg/inj.",6/6
same,AWC Day 4,"P-388 leukemia; d. 1, IP, 0.1 mg/kg/inj.",-0.9 gm
same,MST,"P-388 leukemia; d. 1, IP, 0.1 mg/kg/inj.",11.0 days
same,MST % T/C,"P-388 leukemia; d. 1, IP, 0.1 mg/kg/inj.",122%
same,Survivors Day 5,"P-388 leukemia; d. 1, IP, 0.1 mg/kg/inj.",6/6
same,AWC Day 4,"P-388 leukemia; d. 1, IP, 0.2 mg/kg/inj.",-1.4 gm
same,MST,"P-388 leukemia; d. 1, IP, 0.2 mg/kg/inj.",14.5 days
same,MST % T/C,"P-388 leukemia; d. 1, IP, 0.2 mg/kg/inj.",161%
same,Survivors Day 5,"P-388 leukemia; d. 1, IP, 0.2 mg/kg/inj.",6/6
same,AWC Day 4,"P-388 leukemia; d. 1, IP, 0.4 mg/kg/inj.",-0.7 gm
same,MST,"P-388 leukemia; d. 1, IP, 0.4 mg/kg/inj.",11.0 days
same,MST % T/C,"P-388 leukemia; d. 1, IP, 0.4 mg/kg/inj.",122%
same,Survivors Day 5,"P-388 leukemia; d. 1, IP, 0.4 mg/kg/inj.",6/6
same,AWC Day 4,"P-388 leukemia; d. 1, IP, 0.8 mg/kg/inj.",-1.6 gm
same,MST,"P-388 leukemia; d. 1, IP, 0.8 mg/kg/inj.",10.0 days
same,MST % T/C,"P-388 leukemia; d. 1, IP, 0.8 mg/kg/inj.",111%
same,Survivors Day 5,"P-388 leukemia; d. 1, IP, 0.8 mg/kg/inj.",6/6
same,AWC Day 4,"P-388 leukemia; d. 1, IP, 1.6 mg/kg/inj.",-1.3 gm
same,MST,"P-388 leukemia; d. 1, IP, 1.6 mg/kg/inj.",11.5 days
same,MST % T/C,"P-388 leukemia; d. 1, IP, 1.6 mg/kg/inj.",128%
same,Survivors Day 5,"P-388 leukemia; d. 1, IP, 1.6 mg/kg/inj.",6/6
same,AWC Day 4,"P-388 leukemia; d. 1, IP, 3.2 mg/kg/inj.",-2.8 gm
same,MST,"P-388 leukemia; d. 1, IP, 3.2 mg/kg/inj.",Toxic
same,MST % T/C,"P-388 leukemia; d. 1, IP, 3.2 mg/kg/inj.",Toxic
same,Survivors Day 5,"P-388 leukemia; d. 1, IP, 3.2 mg/kg/inj.",0/6
same,AWC Day 4,"P-388 leukemia; d. 1→5, IP, 0.0125 mg/kg/inj.",-0.9 gm
same,MST,"P-388 leukemia; d. 1→5, IP, 0.0125 mg/kg/inj.",10.5 days
same,MST % T/C,"P-388 leukemia; d. 1→5, IP, 0.0125 mg/kg/inj.",117%
same,AWC Day 4,"P-388 leukemia; d. 1→5, IP, 0.025 mg/kg/inj.",-1.4 gm
same,MST,"P-388 leukemia; d. 1→5, IP, 0.025 mg/kg/inj.",10.0 days
same,MST % T/C,"P-388 leukemia; d. 1→5, IP, 0.025 mg/kg/inj.",111%
same,Survivors Day 5,"P-388 leukemia; d. 1→5, IP, 0.025 mg/kg/inj.",5/5
same,AWC Day 4,"P-388 leukemia; d. 1→5, IP, 0.05 mg/kg/inj.",-1.8 gm
same,MST,"P-388 leukemia; d. 1→5, IP, 0.05 mg/kg/inj.",8.5 days
same,MST % T/C,"P-388 leukemia; d. 1→5, IP, 0.05 mg/kg/inj.",94%
same,Survivors Day 5,"P-388 leukemia; d. 1→5, IP, 0.05 mg/kg/inj.",6/6
same,AWC Day 4,"P-388 leukemia; d. 1→5, IP, 0.1 mg/kg/inj.",-0.8 gm
same,MST,"P-388 leukemia; d. 1→5, IP, 0.1 mg/kg/inj.",11.5 days
same,MST % T/C,"P-388 leukemia; d. 1→5, IP, 0.1 mg/kg/inj.",128%
same,Survivors Day 5,"P-388 leukemia; d. 1→5, IP, 0.1 mg/kg/inj.",6/6
same,AWC Day 4,"P-388 leukemia; d. 1→5, IP, 0.2 mg/kg/inj.",-1.7 gm
same,MST,"P-388 leukemia; d. 1→5, IP, 0.2 mg/kg/inj.",12.0 days
same,MST % T/C,"P-388 leukemia; d. 1→5, IP, 0.2 mg/kg/inj.",133%
same,Survivors Day 5,"P-388 leukemia; d. 1→5, IP, 0.2 mg/kg/inj.",5/6
same,AWC Day 4,"P-388 leukemia; d. 1→5, IP, 0.4 mg/kg/inj.",-1.3 gm
same,MST,"P-388 leukemia; d. 1→5, IP, 0.4 mg/kg/inj.",11.0 days
same,MST % T/C,"P-388 leukemia; d. 1→5, IP, 0.4 mg/kg/inj.",122%
same,Survivors Day 5,"P-388 leukemia; d. 1→5, IP, 0.4 mg/kg/inj.",6/6
same,AWC Day 4,"P-388 leukemia; d. 1→5, IP, 0.8 mg/kg/inj.",-1.4 gm
same,MST,"P-388 leukemia; d. 1→5, IP, 0.8 mg/kg/inj.",6.0 days
same,MST % T/C,"P-388 leukemia; d. 1→5, IP, 0.8 mg/kg/inj.",67%
same,Survivors Day 5,"P-388 leukemia; d. 1→5, IP, 0.8 mg/kg/inj.",5/6
same,AWC Day 4,"P-388 leukemia; d. 1→5, IP, 1.6 mg/kg/inj.",-1.7 gm
same,MST,"P-388 leukemia; d. 1→5, IP, 1.6 mg/kg/inj.",Toxic
same,MST % T/C,"P-388 leukemia; d. 1→5, IP, 1.6 mg/kg/inj.",Toxic
same,Survivors Day 5,"P-388 leukemia; d. 1→5, IP, 1.6 mg/kg/inj.",2/6
same,MIC,[1],12.5 µg/mL
same,MIC,E. coli A15119,12.5 µg/mL
same,MIC,[2],0.024 µg/mL
same,MIC,[3],0.012 µg/mL
same,antibacterial activity,[5],strongly inhibitory
same,MIC,[4],0.098 µg/mL
